Results: patent US20230265116A1, “DEGRADATION OF (EGFR) BY CONJUGATION OF EGFR INHIBITORS WITH E3 LIGASE LIGAND AND METHODS OF USE” (BEIGENE, LTD., priority 2020, published 2023)
Values belong to the compound of their own block, whether it stands above or below them.

Columns and labels:
Format in all cases: cell-based
[1] = target: T1, EGFR L858R/T790M/C797S (BaF3-LTC cells) (Homo sapiens, UniProt P00533, C797S/L858R/T790M); assay: EGFR degradation HTRF assay, BaF3-LTC cells; details: BaF3-LTC cells; for DC50: EGFR degradation, IC50 (DC50) from curve fit, read-out: DC50(nM) BaF3-LTC; for Dmax: read-out: Dmax (%) BaF3-LTC
T1 construct: expressed in transfected cells; host or cells: BaF3
T1 sequence (P00533 25-1210 T790M/C797S/L858R): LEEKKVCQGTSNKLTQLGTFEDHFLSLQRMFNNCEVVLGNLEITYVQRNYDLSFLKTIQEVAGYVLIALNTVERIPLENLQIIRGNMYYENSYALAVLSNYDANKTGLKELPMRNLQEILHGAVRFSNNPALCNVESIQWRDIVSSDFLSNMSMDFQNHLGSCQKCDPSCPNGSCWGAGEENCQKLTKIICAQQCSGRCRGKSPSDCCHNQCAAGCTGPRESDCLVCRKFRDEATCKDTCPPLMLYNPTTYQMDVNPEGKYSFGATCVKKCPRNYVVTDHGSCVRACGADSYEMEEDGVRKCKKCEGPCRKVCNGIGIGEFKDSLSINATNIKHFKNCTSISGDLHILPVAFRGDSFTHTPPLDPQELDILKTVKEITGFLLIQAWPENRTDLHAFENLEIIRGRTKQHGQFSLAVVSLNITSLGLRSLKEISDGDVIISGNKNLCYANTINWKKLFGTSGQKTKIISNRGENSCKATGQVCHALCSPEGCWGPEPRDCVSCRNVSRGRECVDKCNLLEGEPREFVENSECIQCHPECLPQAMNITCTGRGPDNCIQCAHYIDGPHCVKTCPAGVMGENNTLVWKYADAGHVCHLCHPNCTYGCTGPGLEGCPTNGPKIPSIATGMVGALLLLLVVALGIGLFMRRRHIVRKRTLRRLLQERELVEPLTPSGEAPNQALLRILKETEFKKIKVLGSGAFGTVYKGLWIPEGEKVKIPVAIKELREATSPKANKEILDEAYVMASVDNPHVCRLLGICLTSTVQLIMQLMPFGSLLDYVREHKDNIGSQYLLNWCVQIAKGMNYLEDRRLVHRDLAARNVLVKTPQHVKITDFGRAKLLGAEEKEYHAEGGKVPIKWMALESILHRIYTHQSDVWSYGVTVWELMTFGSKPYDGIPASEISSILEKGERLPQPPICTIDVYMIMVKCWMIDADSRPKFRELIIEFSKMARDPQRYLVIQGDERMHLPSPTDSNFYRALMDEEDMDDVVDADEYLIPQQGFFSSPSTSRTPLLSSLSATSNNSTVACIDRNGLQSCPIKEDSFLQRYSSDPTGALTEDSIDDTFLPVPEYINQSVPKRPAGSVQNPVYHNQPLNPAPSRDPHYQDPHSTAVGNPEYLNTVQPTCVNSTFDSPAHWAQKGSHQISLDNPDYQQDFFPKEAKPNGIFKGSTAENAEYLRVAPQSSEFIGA
Outline: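 Cells treated 16 h at 37 °C, 5% CO2 in medium with 0.2% DMSO; top final concentration 10 uM, 5-fold dilution, 8 doses. Lysates read by HTRF (665/620 nm); degradation % versus DMSO high control, DC50 from four-parameter fit, Dmax as maximal degradation.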

[2] = test system: EGFR Del19/T790M/C797S (H1975-clone #28); assay: EGFR degradation HTRF assay, H1975-clone #28 DTC cells; details: H1975 # 28 DTC cells; for DC50: EGFR degradation, IC50 (DC50) from curve fit, read-out: DC50(nM) H1975 # 28 DTC; for Dmax (%) H1975 # 28 DTC: maximum percentage of inhibition (degradation)
Outline: (§1)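 Engineered H1975 lines (lentiviral mutant EGFR, endogenous EGFR knocked out, single-clone verified); 16h compound, 37° C., 5% CO2, 0.2% DMSO; 8-point 5-fold series from 10 uM final. HTRF lysate read; % degradation vs DMSO, four-parameter fit → DC50, Dmax.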

[3] = test system: EGFR Del19/C797S (H1975-clone #23); assay: EGFR degradation HTRF assay, H1975-clone #23 DC cells; details: 16h treatment; for H1975 #23 DC Dmax (%): maximum percentage of degradation; for DC50: H1975 #23 DC, read-out: H1975 #23 DC DC50
Outline: as §1

[4] = target: T2, EGFR L858R/C797S (BaF3 LC cells) (Homo sapiens, UniProt P00533, C797S/L858R); assay: EGFR degradation HTRF assay, BaF3 LC cells; details: BaF3 LC, 16h treatment; for DC50: read-out: BaF3 LC DC50; for Dmax: read-out: BaF3 LC Dmax (%)
T2 construct: expressed in transfected cells; host or cells: BaF3
T2 sequence (P00533 25-1210 C797S/L858R): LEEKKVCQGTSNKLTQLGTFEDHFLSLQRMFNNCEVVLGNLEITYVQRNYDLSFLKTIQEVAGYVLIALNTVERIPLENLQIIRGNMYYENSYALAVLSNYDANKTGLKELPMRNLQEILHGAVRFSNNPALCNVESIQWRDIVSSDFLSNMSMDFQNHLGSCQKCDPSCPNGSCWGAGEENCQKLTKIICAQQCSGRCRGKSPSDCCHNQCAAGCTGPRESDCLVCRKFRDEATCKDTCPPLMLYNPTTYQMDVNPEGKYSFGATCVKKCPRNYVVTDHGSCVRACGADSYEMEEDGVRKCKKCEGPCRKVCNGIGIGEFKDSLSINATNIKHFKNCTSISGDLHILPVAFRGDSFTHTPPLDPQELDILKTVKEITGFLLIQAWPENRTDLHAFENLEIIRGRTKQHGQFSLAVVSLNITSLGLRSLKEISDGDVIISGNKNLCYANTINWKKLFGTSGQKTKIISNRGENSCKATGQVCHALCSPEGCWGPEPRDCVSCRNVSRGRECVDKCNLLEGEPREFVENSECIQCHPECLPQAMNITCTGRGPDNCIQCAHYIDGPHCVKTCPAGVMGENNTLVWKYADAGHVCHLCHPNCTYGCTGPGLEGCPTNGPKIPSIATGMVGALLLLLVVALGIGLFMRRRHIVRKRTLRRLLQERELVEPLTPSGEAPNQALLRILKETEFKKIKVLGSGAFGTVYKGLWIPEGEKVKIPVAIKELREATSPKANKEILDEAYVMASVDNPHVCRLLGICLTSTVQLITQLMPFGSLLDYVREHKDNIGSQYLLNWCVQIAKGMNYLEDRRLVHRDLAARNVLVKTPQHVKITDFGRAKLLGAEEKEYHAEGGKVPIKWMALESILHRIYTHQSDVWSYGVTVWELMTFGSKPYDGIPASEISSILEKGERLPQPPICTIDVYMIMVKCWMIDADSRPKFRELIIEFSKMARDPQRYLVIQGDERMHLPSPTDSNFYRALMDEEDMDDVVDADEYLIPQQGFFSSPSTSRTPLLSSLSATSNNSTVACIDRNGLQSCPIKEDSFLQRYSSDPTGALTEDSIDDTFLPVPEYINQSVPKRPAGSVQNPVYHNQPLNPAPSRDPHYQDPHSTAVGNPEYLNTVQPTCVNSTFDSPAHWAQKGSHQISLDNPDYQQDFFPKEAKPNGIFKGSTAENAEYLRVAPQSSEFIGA

[5] = maximum percentage of inhibition (degradation)
[6] = maximum percentage of degradation

SMILES: CCOc1cc(N2CCC(N3CCN(CCc4cccc5c4oc(=O)n5C4CCC(=O)NC4=O)CC3)CC2)c(CC)cc1Nc1ncc(Br)c(Nc2ccc3c(=O)n(CC)ncc3c2P(C)(C)=O)n1 (stereo not drawn) [Example 455, 3-(7-(2-(4-(1-(4-((5-bromo-4-((5-(dimethylphosphoryl)-2-ethyl-1-oxo-1,2-dihydrophthalazin-6-yl)amino)pyrimidin-2-yl)amino)-5-ethoxy-2-ethylphenyl)piperidin-4-y)piperazin-1-yl)ethyl)-2-oxobenzo[d]oxazol-3(2H)-yl)piperidine-2,6-dione]
DC50 [1]: 3.83 nM
Dmax (%) BaF3-LTC [1, 5]: 87.13%
DC50 [2]: 0.47 nM
Dmax (%) H1975 # 28 DTC [2]: 79.19%
H1975 #23 DC Dmax (%) [3]: 77.73%
DC50 [3]: 2.31 nM
BaF3 LC Dmax (%) [4, 6]: 77.76%
DC50 [4]: 121 nM

SMILES: CCOc1cc(N2CCC(N3CCN(CCc4cc(F)c([C@H]5CCC(=O)NC5=O)c(F)c4)CC3)CC2)c(CC)cc1Nc1ncc(Br)c(Nc2ccc3nc(CC)ncc3c2P(C)(C)=O)n1 [Example 460, (R)-3-(4-(2-(4-(1-(4-((5-bromo-4-((5-(dimethylphosphoryl)-2-ethylquinazolin-6-yl)amino)pyrimidin-2-yl)amino)-5-ethoxy-2-ethylphenyl)piperidin-4-yl)piperazin-1-yl)ethyl)-2,6-difluorophenyl)piperidine-2,6-dione]
DC50 [1]: 16.4 nM
DC50 [2]: 2.43 nM
Dmax (%) H1975 # 28 DTC [2]: 86%
H1975 #23 DC Dmax (%) [3]: 82.75%
DC50 [3]: 3.11 nM
DC50 [4]: 37.3 nM

SMILES: CCOc1cc(N2CCC(N3CCN(CCc4cc(F)cc5c4n(C)c(=O)n5C4CCC(=O)NC4=O)CC3)CC2)c(CC)cc1Nc1ncc(Br)c(Nc2ccc3nc(CC)ccc3c2P(C)(C)=O)n1 (stereo not drawn) [Example 462, 3-(4-(2-(4-(1-(4-((5-bromo-4-((5-(dimethylphosphoryl)-2-ethylquinolin-6-yl)amino)pyrimidin-2-yl)amino)-5-ethoxy-2-ethylphenyl)piperidin-4-yl)piperazin-1-yl)ethyl)-6-fluoro-3-methyl-2-oxo-2,3-dihydro-1H-benzo[d]imidazol-1-yl)piperidine-2,6-dione]
DC50 [1]: 19.2 nM
DC50 [2]: 1.12 nM
Dmax (%) H1975 # 28 DTC [2]: 78.37%
H1975 #23 DC Dmax (%) [3]: 77.67%
DC50 [3]: 3.19 nM
DC50 [4]: 67.7 nM

SMILES: CCOc1cc(N2CCC(N3CCN(CCc4ccc(C)c5c4oc(=O)n5C4CCC(=O)NC4=O)CC3)CC2)c(CC)cc1Nc1ncc(Br)c(Nc2ccc3nc(CC)ccc3c2P(C)(C)=O)n1 (stereo not drawn) [Example 470, 3-(7-(2-(4-(1-(4-((5-bromo-4-((5-(dimethylphosphoryl)-2-ethylquinolin-6-yl)amino)pyrimidin-2-yl)amino)-5-ethoxy-2-ethylphenyl)piperidin-4-yl)piperazin-1-yl)ethyl)-4-methyl-2-oxobenzo[d]oxazol-3(2H)-yl)piperidine-2,6-dione]
DC50 [1]: 418 nM
Dmax [1, 5]: 80.5%
DC50 [2]: > 10000 nM
Dmax (%) H1975 # 28 DTC [2]: 39.87%
H1975 #23 DC Dmax (%) [3]: 64.89%
DC50 [3]: 9540 nM
Dmax [4, 6]: 86.6%
DC50 [4]: 300 nM

SMILES: CCOc1cc(N2CCC(N3CCN(CCc4c(F)ccc5c4n(CC)c(=O)n5C4CCC(=O)NC4=O)CC3)CC2)c(CC)cc1Nc1ncc(Br)c(Nc2ccc3c(=O)n(CC)ncc3c2P(C)(C)=O)n1 (stereo not drawn) [Example 559, 3-(4-(2-(4-(1-(4-((5-bromo-4-((5-(dimethylphosphoryl)-2-ethyl-1-oxo-1,2-dihydrophthalazin-6-yl)amino)pyrimidin-2-yl)amino)-5-ethoxy-2-ethylphenyl)piperidin-4-yl)piperazin-1-yl)ethyl)-3-ethyl-5-fluoro-2-oxo-2,3-dihydro-1H-benzo[d]imidazol-1-yl)piperidine-2,6-dione]
DC50 [1]: 12 nM
DC50 [2]: 0.364 nM
Dmax (%) H1975 # 28 DTC [2]: 80.93%
H1975 #23 DC Dmax (%) [3]: 73.67%
DC50 [3]: 5.38 nM
DC50 [4]: 26.9 nM

Continued by falling DC50 [1], values first:

DC50 [1]: 12 nM
Dmax [1, 5]: 79.2%
DC50 [2]: 1.15 nM
DC50 [3]: 2.65 nM
Dmax [4, 6]: 81.1%
DC50 [4]: 30.4 nM
SMILES: CCOc1cc(N2CCC(N3CCN(CCc4cc(F)c(F)c5c4oc(=O)n5C4CCC(=O)NC4=O)CC3)CC2)c(CC)cc1Nc1ncc(Br)c(Nc2ccc3nc(CC)ccc3c2P(C)(C)=O)n1 (stereo not drawn) [Example 474, 3-(7-(2-(4-(1-(4-((5-bromo-4-((5-(dimethylphosphoryl)-2-ethylquinolin-6-yl)amino)pyrimidin-2-yl)amino)-5-ethoxy-2-ethylphenyl)piperidin-4-yl)piperazin-1-yl)ethyl)-4,5-difluoro-2-oxobenzo[d]oxazol-3(2H)-yl)piperidine-2,6-dione]
Dmax (%) H1975 # 28 DTC [2]: 73.43%
H1975 #23 DC Dmax (%) [3]: 68.97%

DC50 [1]: 7.62 nM
Dmax [1, 5]: 91.4%
DC50 [2]: 2.1 nM
DC50 [3]: 0.377 nM
Dmax [4, 6]: 92.9%
DC50 [4]: 0.718 nM
SMILES: CCOc1cc(N2CCC(N3CCN(CCc4cc5oc(=O)n(C6CCC(=O)NC6=O)c5cc4F)CC3)CC2)c(CC)cc1Nc1ncc(Br)c(Nc2cc(F)c3nc(CC)ccc3c2P(C)(C)=O)n1 (stereo not drawn) [Example 498, 3-(6-(2-(4-(1-(4-((5-bromo-4-((5-(dimethylphosphoryl)-2-ethyl-8-fluoroquinolin-6-yl)amino)pyrimidin-2-yl)amino)-5-ethoxy-2-ethylphenyl)piperidin-4-yl)piperazin-1-yl)ethyl)-5-fluoro-2-oxobenzo[d]oxazol-3(2H)-yl)piperidine-2,6-dione]
Dmax (%) H1975 # 28 DTC [2]: 86.84%
H1975 #23 DC Dmax (%) [3]: 66.76%

DC50 [1]: 3.02 nM
DC50 [2]: 0.404 nM
DC50 [3]: 5.49 nM
DC50 [4]: 57.2 nM
SMILES: CCOc1cc(N2CCC(N3CCN(CCc4cc(F)c([C@H]5CCC(=O)NC5=O)c(F)c4)CC3)CC2)c(CC)cc1Nc1ncc(Br)c(Nc2ccc3c(=O)n(C)ncc3c2P(C)(C)=O)n1 [Example 502, (R)-3-(4-(2-(4-(1-(4-((5-bromo-4-((5-(dimethylphosphoryl)-2-methyl-1-oxo-1,2-dihydrophthalazin-6-yl)amino)pyrimidin-2-yl)amino)-5-ethoxy-2-ethylphenyl)piperidin-4-yl)piperazin-1-yl)ethyl)-2,6-difluorophenyl)piperidine-2,6-dione]
Dmax (%) H1975 # 28 DTC [2]: 88.96%
H1975 #23 DC Dmax (%) [3]: 75.93%

DC50 [1]: 2.72 nM
DC50 [2]: 0.647 nM
DC50 [3]: 0.85 nM
DC50 [4]: 2.34 nM
SMILES: CCc1ccc2c(P(C)(C)=O)c(Nc3nc(Nc4cc(CC)c(N5CCC(N6CCN(CCc7ccc8c(c7)oc(=O)n8C7CCC(=O)NC7=O)CC6)CC5)cc4OC)ncc3Br)ccc2n1 (stereo not drawn) [Example 491, 3-(6-(2-(4-(1-(4-((5-bromo-4-((5-(dimethylphosphoryl)-2-ethylquinolin-6-yl)amino)pyrimidin-2-yl)amino)-2-ethyl-5-methoxyphenyl)piperidin-4-yl)piperazin-1-yl)ethyl)-2-oxobenzo[d]oxazol-3(2H)-yl)piperidine-2,6-dione]
Dmax (%) H1975 # 28 DTC [2]: 78.48%
H1975 #23 DC Dmax (%) [3]: 58.85%

DC50 [1]: 2.46 nM
Dmax [1, 5]: 84.5%
DC50 [2]: 1.92 nM
DC50 [3]: > 16 nM
Dmax [4, 6]: 92.7%
DC50 [4]: 1.94 nM
SMILES: CCOc1cc(N2CCC(N3CCN(CCc4cc5oc(=O)n(C6CCC(=O)NC6=O)c5cc4C)CC3)CC2)c(CC)cc1Nc1ncc(Br)c(Nc2ccc3nc(CC)ccc3c2P(C)(C)=O)n1 (stereo not drawn) [Example 465, 3-(6-(2-(4-(1-(4-((5-bromo-4-((5-(dimethylphosphoryl)-2-ethylquinolin-6-yl)amino)pyrimidin-2-yl)amino)-5-ethoxy-2-ethylphenyl)piperidin-4-yl)piperazin-1-yl)ethyl)-5-methyl-2-oxobenzo[d]oxazol-3(2H)-yl)piperidine-2,6-dione]
Dmax (%) H1975 # 28 DTC [2]: 70.68%
H1975 #23 DC Dmax (%) [3]: 48.97%

DC50 [1]: 2.3 nM
Dmax [1, 5]: 85.5%
DC50 [2]: 0.92 nM
DC50 [3]: 0.787 nM
Dmax [4, 6]: 91.3%
DC50 [4]: 2.23 nM
SMILES: CCOc1cc(N2CCC(N3CCN(CCCc4cc(F)cc5c4oc(=O)n5C4CCC(=O)NC4=O)CC3)CC2)c(CC)cc1Nc1ncc(Br)c(Nc2ccc3nc(CC)ccc3c2P(C)(C)=O)n1 (stereo not drawn) [Example 496, 3-(7-(3-(4-(1-(4-((5-bromo-4-((5-(dimethylphosphoryl)-2-ethylquinolin-6-yl)amino)pyrimidin-2-yl)amino)-5-ethoxy-2-ethylphenyl)piperidin-4-yl)piperazin-1-yl)propyl)-5-fluoro-2-oxobenzo[d]oxazol-3(2H)-yl)piperidine-2,6-dione]
Dmax (%) H1975 # 28 DTC [2]: 75.32%
H1975 #23 DC Dmax (%) [3]: 95.59%
